What was measured:
KCNQ2 + KCNQ3 = target: T1, KCNQ2 + KCNQ3 (UniProt O43526+O88944, DEL417-446); assay: Blockade of KCNQ2+KCNQ3 channels expressed in Xenopus oocytes; assay type: cell-based, human KCNQ2, rat KCNQ3; details: mean±s.e.m.
T1 construct: Full-length KCNQ2 cDNAs were amplified from adult human brain cDNA; Multiple full-length cDNA clones were amplified in independent PCR reactions from rat SCG cDNA; expressed in transfected cells; host or cells: Xenopus oocytes injected with cRNA
Protocol: Method: Full-length KCNQ2 cDNAs were amplified from adult human brain cDNA using the following primers ([…], […]) with the Expand Fidelity enzyme mixture (Boehringer Mannheim, Indianapolis). […] This region is also alternatively spliced in the KCNQ2 cDNA clone described by Biervert et al. (1998). Preparation, injection of cRNA and recording from oocytes was performed at room temperature as described previously (Dixon et al. 1996). The standard extracellular recording solution contained: 82 mM NaCl, 2 mM KCl, 1.8 mM CaCl2, 1 mM MgCl2, and 5 mM Na-HEPES (pH 7.6). Data collection and analysis were performed using pClamp software (Axon Instruments, Foster City, Calif.).
Holding potential was −60 mV and the cell was repetitively depolarized to −30 mV for 1 minute to reach steady-state blockade. Tail currents were recorded at −50 mV.
IC50 values are all expressed in μM, mean±s.e.m. In cases where the IC50 values were greater than 100 μM the exact value is not reported due to limited solubility in the drug.

erg1 = target: T2, erg1 (Rattus norvegicus, UniProt O08962); assay: Blockade of cloned erg1 channel in oocytes; assay type: cell-based; details: mean±s.e.m.
T2 construct: expressed in transfected cells; host or cells: oocytes (Xenopus)
T2 sequence (O08962 1-1163): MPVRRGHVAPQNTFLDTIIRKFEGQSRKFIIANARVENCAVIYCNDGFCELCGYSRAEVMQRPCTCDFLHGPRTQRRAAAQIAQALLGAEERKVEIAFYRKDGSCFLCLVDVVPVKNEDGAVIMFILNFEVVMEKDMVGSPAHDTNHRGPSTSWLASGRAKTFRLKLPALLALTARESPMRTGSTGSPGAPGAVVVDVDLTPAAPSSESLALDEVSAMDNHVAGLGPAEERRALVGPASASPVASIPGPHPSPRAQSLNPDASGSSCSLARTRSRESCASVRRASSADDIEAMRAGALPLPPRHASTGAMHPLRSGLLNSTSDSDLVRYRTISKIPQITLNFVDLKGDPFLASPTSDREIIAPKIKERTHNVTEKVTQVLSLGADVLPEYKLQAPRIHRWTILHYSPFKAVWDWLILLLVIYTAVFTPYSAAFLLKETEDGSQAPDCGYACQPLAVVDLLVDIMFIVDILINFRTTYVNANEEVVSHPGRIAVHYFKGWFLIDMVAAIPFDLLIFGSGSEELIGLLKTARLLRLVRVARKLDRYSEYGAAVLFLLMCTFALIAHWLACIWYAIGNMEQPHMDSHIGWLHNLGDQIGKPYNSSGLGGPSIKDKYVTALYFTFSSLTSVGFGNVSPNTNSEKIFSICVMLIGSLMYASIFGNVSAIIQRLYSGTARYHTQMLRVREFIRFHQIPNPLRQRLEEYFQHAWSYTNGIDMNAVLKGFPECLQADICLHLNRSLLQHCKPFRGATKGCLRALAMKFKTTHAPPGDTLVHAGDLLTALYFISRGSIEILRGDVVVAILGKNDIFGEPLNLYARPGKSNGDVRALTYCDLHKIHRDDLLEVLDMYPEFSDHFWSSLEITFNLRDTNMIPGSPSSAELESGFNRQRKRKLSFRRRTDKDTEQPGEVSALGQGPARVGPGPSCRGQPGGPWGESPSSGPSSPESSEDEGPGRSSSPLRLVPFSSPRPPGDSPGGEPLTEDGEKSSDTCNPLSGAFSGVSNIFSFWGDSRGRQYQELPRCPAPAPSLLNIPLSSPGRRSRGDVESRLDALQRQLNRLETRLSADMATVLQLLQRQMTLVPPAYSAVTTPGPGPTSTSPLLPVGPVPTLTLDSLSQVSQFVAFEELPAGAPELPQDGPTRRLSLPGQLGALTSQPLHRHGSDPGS

elk1 = target: T3, elk1 (Rattus norvegicus, UniProt Q9QWS8); assay: Blockade of cloned elk1 channel in oocytes; assay type: cell-based
T3 construct: expressed in transfected cells; host or cells: oocytes (Xenopus)
T3 sequence (Q9QWS8 1-1102): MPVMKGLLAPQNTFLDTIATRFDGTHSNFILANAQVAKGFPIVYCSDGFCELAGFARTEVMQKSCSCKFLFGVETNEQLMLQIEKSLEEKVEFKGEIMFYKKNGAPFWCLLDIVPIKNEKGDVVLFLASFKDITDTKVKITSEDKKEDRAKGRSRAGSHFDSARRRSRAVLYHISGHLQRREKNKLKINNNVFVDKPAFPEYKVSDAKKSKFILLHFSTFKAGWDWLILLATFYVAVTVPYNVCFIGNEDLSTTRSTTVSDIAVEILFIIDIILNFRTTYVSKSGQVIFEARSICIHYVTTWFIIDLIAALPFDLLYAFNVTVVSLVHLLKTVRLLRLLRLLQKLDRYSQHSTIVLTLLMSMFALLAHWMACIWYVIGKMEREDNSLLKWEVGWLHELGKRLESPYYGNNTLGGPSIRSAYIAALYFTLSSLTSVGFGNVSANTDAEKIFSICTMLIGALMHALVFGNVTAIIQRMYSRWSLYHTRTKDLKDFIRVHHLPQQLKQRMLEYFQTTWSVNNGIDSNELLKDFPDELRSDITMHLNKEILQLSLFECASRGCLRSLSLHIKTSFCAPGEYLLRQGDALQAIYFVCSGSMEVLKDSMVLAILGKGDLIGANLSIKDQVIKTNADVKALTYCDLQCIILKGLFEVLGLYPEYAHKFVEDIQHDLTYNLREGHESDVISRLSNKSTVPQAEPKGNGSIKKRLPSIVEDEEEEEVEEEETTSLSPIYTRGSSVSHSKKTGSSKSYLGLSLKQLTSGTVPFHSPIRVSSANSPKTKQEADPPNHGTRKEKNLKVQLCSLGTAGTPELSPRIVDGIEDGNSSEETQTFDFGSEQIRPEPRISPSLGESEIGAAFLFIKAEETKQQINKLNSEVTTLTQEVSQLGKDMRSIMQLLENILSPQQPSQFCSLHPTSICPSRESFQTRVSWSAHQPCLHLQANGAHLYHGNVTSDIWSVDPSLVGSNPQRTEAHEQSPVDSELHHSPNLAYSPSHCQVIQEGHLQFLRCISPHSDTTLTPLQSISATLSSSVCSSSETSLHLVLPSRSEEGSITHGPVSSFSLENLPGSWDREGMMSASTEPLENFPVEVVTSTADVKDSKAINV

Kv1.2 = target: T4, Kv1.2 (Homo sapiens, UniProt P16389); assay: Blockade of cloned Kv1.2 channel in oocytes; assay type: cell-based; details: mean±s.e.m.
T4 construct: expressed in transfected cells; host or cells: oocytes (Xenopus)
T4 sequence (P16389 whole entry): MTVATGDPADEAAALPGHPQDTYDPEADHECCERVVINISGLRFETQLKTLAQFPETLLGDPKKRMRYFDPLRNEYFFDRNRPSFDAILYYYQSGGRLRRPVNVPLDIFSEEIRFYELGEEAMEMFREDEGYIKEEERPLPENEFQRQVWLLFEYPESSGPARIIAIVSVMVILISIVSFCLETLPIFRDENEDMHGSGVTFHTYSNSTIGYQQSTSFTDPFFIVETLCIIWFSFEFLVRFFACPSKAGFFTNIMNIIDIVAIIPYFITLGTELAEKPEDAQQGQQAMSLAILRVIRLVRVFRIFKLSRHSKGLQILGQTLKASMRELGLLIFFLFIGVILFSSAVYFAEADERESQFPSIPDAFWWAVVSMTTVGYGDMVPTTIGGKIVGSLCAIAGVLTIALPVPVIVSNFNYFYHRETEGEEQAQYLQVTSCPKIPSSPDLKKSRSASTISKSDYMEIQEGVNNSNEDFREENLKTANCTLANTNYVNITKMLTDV

| IC50 (KCNQ2 + KCNQ3) [µM] | IC50 (erg1) [µM] | IC50 (elk1; at +30 mV) [µM] | IC50 (elk1; at −20 mV) [µM] | IC50 (elk1; step to −10 mV, voltage dependent) [µM] | IC50 (Kv1.2) [µM] | IC50 (elk1; oocytes) [µM] | Compound |
| --- | --- | --- | --- | --- | --- | --- | --- |
| 4 ± 0.5 | 53 ± 4 | 144 | 26 | 37 ± 4 | 68 ± 6 |  | O=C1N(c2ccccc2)c2ccccc2C1(Cc1ccncc1)Cc1ccncc1 [Linopirdine, 3,3-bis(4-pyridinylmethyl)-1-phenylindolin-2-one] |
| 0.6 ± 0.1 | > 100 |  |  |  | > 100 | > 100 | O=C1c2ccccc2C(Cc2ccncc2)(Cc2ccncc2)c2ccccc21 [XE991, 10,10-bis(4-pyridinylmethyl)-9(10H)-anthracenone] |
